Data taken from the NIST ThermoML archive (doi:10.1021/je060271a).
± gives the expanded uncertainty stated by the source.

Conditions: 343.15 K, Liquid, Vibrating tube method

CCCCCC(=O)OCC(COC(=O)CCCCC)(COC(=O)CCCCC)COC(=O)CCCCC [pentaerythritol tetrahexanoate]
Conditions | mass density [kg/m3]
13093 kPa | 966.8 ± 1.2
13131 kPa | 966.9 ± 1.2
13169 kPa | 966.9 ± 1.2
13207 kPa | 966.9 ± 1.2
13245 kPa | 966.9 ± 1.2
13290 kPa | 967 ± 1.2
13328 kPa | 967.2 ± 1.2
13373 kPa | 967 ± 1.2
13409 kPa | 967.1 ± 1.2
13559 kPa | 967.3 ± 1.2
13566 kPa | 967.3 ± 1.2
13908 kPa | 967.5 ± 1.2
13933 kPa | 967.3 ± 1.2
13985 kPa | 967.4 ± 1.2
14253 kPa | 967.7 ± 1.2
14284 kPa | 967.7 ± 1.2
14335 kPa | 967.9 ± 1.2
14361 kPa | 967.8 ± 1.2
14387 kPa | 967.8 ± 1.2
14418 kPa | 967.8 ± 1.2
14469 kPa | 967.9 ± 1.2
14756 kPa | 968.1 ± 1.2
14783 kPa | 968.1 ± 1.2
14816 kPa | 968.1 ± 1.2
14843 kPa | 968.2 ± 1.2
15289 kPa | 968.4 ± 1.2
15317 kPa | 968.4 ± 1.2
15350 kPa | 968.4 ± 1.2
15379 kPa | 968.4 ± 1.2
15408 kPa | 968.4 ± 1.2
15436 kPa | 968.6 ± 1.2
15470 kPa | 968.5 ± 1.2
15498 kPa | 968.6 ± 1.2
15525 kPa | 968.6 ± 1.2
15558 kPa | 968.6 ± 1.2
15584 kPa | 968.6 ± 1.2
15615 kPa | 968.6 ± 1.2
16026 kPa | 968.9 ± 1.2
16081 kPa | 968.9 ± 1.2
16112 kPa | 968.9 ± 1.2
16138 kPa | 969 ± 1.2
16163 kPa | 969 ± 1.2
16189 kPa | 969.1 ± 1.2
16220 kPa | 969 ± 1.2
16246 kPa | 969.1 ± 1.2
16272 kPa | 969 ± 1.2
16303 kPa | 969 ± 1.2
16328 kPa | 969.2 ± 1.2
16525 kPa | 969.2 ± 1.2
16552 kPa | 969.4 ± 1.2
16584 kPa | 969.3 ± 1.2
16611 kPa | 969.4 ± 1.2
16638 kPa | 969.2 ± 1.2
16666 kPa | 969.3 ± 1.2
16699 kPa | 969.4 ± 1.2
16726 kPa | 969.4 ± 1.2
16754 kPa | 969.4 ± 1.2
16782 kPa | 969.5 ± 1.2
16815 kPa | 969.5 ± 1.2
16844 kPa | 969.5 ± 1.2
17457 kPa | 970 ± 1.2
17484 kPa | 970 ± 1.2
17516 kPa | 970 ± 1.2
17543 kPa | 970 ± 1.2
17571 kPa | 970 ± 1.2
17599 kPa | 969.9 ± 1.2
17632 kPa | 970 ± 1.2
17686 kPa | 970 ± 1.2
17714 kPa | 970.1 ± 1.2
17747 kPa | 970.3 ± 1.2
17775 kPa | 970.2 ± 1.2
17808 kPa | 970.2 ± 1.2
17836 kPa | 970 ± 1.2
17864 kPa | 970.2 ± 1.2
17898 kPa | 970.1 ± 1.2
17926 kPa | 970.3 ± 1.2
17954 kPa | 970.3 ± 1.2
17983 kPa | 970.2 ± 1.2
18017 kPa | 970.3 ± 1.2
18046 kPa | 970.3 ± 1.2
18080 kPa | 970.3 ± 1.2
18109 kPa | 970.3 ± 1.2
18137 kPa | 970.4 ± 1.2
18165 kPa | 970.3 ± 1.2
18200 kPa | 970.4 ± 1.2
18228 kPa | 970.5 ± 1.2
18261 kPa | 970.5 ± 1.2
18289 kPa | 970.4 ± 1.2
18316 kPa | 970.6 ± 1.2
18346 kPa | 970.5 ± 1.2
18370 kPa | 970.6 ± 1.2
18394 kPa | 970.5 ± 1.2
18418 kPa | 970.6 ± 1.2
18446 kPa | 970.5 ± 1.2
18471 kPa | 970.6 ± 1.2
18495 kPa | 970.7 ± 1.2
18524 kPa | 970.7 ± 1.2
18656 kPa | 970.8 ± 1.2
18681 kPa | 970.8 ± 1.2
18706 kPa | 970.8 ± 1.2
18732 kPa | 970.7 ± 1.2
18761 kPa | 970.8 ± 1.2
18787 kPa | 970.9 ± 1.2
18812 kPa | 970.8 ± 1.2
18842 kPa | 970.9 ± 1.2
18867 kPa | 970.9 ± 1.2
18923 kPa | 971 ± 1.2
18949 kPa | 970.9 ± 1.2
18975 kPa | 971.1 ± 1.2
19008 kPa | 971 ± 1.2
19034 kPa | 971 ± 1.2
19060 kPa | 971.1 ± 1.2
19085 kPa | 971 ± 1.2
19632 kPa | 971.4 ± 1.2
19654 kPa | 971.4 ± 1.2
19677 kPa | 971.5 ± 1.2
19700 kPa | 971.5 ± 1.2
19726 kPa | 971.4 ± 1.2
19747 kPa | 971.4 ± 1.2
19768 kPa | 971.5 ± 1.2
19790 kPa | 971.5 ± 1.2
19809 kPa | 971.6 ± 1.2
19830 kPa | 971.5 ± 1.2
19850 kPa | 971.6 ± 1.2
20110 kPa | 971.8 ± 1.2
20121 kPa | 971.8 ± 1.2
20124 kPa | 971.8 ± 1.2
20125 kPa | 971.7 ± 1.2
20126 kPa | 971.8 ± 1.2
20127 kPa | 971.9 ± 1.2
20128 kPa | 971.8 ± 1.2
21458 kPa | 972.6 ± 1.2
21485 kPa | 972.7 ± 1.2
21513 kPa | 972.7 ± 1.2
21545 kPa | 972.7 ± 1.2
21573 kPa | 972.7 ± 1.2
21600 kPa | 972.8 ± 1.2
21630 kPa | 972.7 ± 1.2
21654 kPa | 972.8 ± 1.2
21678 kPa | 972.6 ± 1.2
21708 kPa | 972.7 ± 1.2
21835 kPa | 972.9 ± 1.2
21865 kPa | 972.9 ± 1.2
21890 kPa | 973 ± 1.2
21915 kPa | 973 ± 1.2
